Consider one molecule from PMC9506414, “Novel 2,6,9-Trisubstituted Purines as Potent CDK Inhibitors Alleviating Trastuzumab-Resistance of HER2-Positive Breast Cancers” (Pharmaceuticals, 2022).

Where two headings read alike, the source gives them in different places.

One data set concerns the target CYP2C9 (Homo sapiens, UniProt P11712). In words: CYP inhibition. In kind it is in vitro ADME. The protocol: Table 6 In vitro liver metabolic stability and activity against CYPs of potent analogues. | column: CYP % Activity at 10 μM / 2C9
A further data set deals with CDK12/CyclinK (Homo sapiens, UniProt Q9NYV4). In words: In vitro CDK12/cyclinK kinase assay. Type of data set: biochemical. Set-up: purchased Reaction Biology Corp. (CRO that ran the assay). The protocol: In vitro CDK12/cyclinK assays for all compounds and in vitro kinome-wide inhibition profiling of 30d at 10 μM were performed by a CRO company (Reaction Biology Corp., San Diego, CA, USA).
Chain of CDK12/CyclinK (Q9NYV4 whole entry): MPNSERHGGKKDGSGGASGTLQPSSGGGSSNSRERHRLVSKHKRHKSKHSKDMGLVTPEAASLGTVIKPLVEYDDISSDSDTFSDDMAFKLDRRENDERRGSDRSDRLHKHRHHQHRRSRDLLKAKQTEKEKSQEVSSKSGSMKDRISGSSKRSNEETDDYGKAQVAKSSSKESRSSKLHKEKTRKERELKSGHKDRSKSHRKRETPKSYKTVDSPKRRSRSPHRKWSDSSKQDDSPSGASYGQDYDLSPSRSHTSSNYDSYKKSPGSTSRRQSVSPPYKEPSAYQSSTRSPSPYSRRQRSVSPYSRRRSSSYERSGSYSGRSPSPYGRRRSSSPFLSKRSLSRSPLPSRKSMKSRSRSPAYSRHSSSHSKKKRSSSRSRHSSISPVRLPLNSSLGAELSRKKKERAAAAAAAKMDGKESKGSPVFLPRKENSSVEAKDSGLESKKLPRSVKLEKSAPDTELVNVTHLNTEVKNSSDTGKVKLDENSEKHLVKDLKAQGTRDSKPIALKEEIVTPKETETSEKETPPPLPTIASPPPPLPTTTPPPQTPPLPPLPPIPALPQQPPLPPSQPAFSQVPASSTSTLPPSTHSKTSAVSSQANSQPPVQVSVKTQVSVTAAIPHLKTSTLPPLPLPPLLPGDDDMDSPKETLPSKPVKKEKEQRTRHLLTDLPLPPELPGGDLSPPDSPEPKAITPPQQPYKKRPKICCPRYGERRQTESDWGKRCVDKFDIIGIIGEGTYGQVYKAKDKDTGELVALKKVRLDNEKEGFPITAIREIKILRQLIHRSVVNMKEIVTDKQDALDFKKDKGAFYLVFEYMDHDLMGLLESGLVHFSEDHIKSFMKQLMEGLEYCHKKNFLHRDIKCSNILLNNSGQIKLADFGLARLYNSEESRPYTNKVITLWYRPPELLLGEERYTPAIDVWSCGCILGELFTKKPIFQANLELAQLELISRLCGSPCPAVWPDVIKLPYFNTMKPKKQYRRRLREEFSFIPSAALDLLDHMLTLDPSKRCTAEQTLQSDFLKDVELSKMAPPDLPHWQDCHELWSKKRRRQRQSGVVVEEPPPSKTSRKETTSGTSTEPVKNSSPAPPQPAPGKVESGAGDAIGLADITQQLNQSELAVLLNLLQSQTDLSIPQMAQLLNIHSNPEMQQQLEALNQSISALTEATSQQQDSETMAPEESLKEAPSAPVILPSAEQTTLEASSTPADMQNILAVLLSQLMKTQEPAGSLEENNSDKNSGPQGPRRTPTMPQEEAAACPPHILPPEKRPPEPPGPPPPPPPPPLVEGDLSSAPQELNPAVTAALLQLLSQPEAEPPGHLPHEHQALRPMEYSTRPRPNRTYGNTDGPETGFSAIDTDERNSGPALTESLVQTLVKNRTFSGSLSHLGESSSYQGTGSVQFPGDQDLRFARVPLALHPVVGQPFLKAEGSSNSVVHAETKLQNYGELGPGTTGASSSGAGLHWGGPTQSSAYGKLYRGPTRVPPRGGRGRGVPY
Chain of CDK12/CyclinK (O75909 whole entry partner): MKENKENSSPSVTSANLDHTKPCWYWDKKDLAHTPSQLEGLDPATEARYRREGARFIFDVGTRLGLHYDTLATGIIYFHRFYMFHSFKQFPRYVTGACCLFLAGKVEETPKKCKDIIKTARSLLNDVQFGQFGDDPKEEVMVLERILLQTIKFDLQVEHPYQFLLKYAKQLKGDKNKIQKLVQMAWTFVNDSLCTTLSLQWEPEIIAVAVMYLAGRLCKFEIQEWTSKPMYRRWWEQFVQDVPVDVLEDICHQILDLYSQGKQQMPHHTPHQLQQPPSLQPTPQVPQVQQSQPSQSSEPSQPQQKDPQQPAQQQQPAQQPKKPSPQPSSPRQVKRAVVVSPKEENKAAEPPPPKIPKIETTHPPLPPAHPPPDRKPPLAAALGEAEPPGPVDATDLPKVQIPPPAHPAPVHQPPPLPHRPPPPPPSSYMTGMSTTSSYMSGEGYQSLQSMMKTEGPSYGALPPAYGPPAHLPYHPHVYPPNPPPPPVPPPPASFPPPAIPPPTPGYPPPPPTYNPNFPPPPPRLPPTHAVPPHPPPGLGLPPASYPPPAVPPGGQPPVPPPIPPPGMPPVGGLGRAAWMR

For another data set, the target named is CYP2C19 (Homo sapiens, UniProt P33261). Briefly: CYP inhibition. Type of data set: in vitro ADME. The protocol:
Table 6 In vitro liver metabolic stability and activity against CYPs of potent analogues. | column: CYP % Activity at 10 μM / 2C19

A further data set concerns HCC1954 cells. Briefly: Antiproliferation assay (Cell-titer Glo, 72 h). In kind it is cell-based. The note with it: Homo sapiens, 72 h, means and standard deviations from three independent assays, read-out: HCC1954 (GI50/μM). The procedure, abridged: (§1)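 Cells in RPMI/10% FBS were seeded at 5000 (SK-Br3) or 1000 (HCC-1954) per well and allowed 24 h to settle. Compounds were pin-transferred as 3-fold, 10-point duplicate series from a 10 mM stock and incubated 72 h at 37 °C. Viability was read by CellTiter-Glo luminescence and IC50 obtained by curve fitting.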

For the next data set, the system named is SK-Br3 cells. In words: Antiproliferation assay (Cell-titer Glo, 72 h). Type of data set: cell-based. The note with it: Homo sapiens, SK-BR-3; 72 h; means and standard deviations from three independent assays; read-out: SK-Br3 (GI50/μM). Put shortly: as §1
Another data set concerns the target CYP2D6 (Homo sapiens, UniProt P10635). In words: CYP inhibition. Type of data set: in vitro ADME. The protocol: Table 6 In vitro liver metabolic stability and activity against CYPs of potent analogues. | column: CYP % Activity at 10 μM / 2D6
The next data set deals with T1, CYP1A2 (Homo sapiens, UniProt P05177).
T1 sequence (P05177 1-516): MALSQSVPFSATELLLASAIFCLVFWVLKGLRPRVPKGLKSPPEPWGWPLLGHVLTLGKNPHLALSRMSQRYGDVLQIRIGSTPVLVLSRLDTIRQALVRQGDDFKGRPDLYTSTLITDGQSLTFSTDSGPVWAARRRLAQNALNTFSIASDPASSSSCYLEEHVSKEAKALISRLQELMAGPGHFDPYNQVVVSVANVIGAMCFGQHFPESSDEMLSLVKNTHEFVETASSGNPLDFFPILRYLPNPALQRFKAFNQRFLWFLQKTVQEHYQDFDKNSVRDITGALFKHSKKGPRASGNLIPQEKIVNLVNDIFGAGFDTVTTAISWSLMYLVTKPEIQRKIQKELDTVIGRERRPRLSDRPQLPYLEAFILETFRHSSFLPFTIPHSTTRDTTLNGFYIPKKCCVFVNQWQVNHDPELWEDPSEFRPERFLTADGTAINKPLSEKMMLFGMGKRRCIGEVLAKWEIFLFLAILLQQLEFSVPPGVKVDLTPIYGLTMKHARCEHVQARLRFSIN
In words: CYP inhibition. Type of data set: in vitro ADME. The protocol:
Table 6 In vitro liver metabolic stability and activity against CYPs of potent analogues. | column: CYP % Activity at 10 μM / 1A2

Data set [1] can be described thus: In vitro liver microsomal stability. Type of data set: in vitro ADME. The note with it: liver microsomes, pH 7.4, 30 m at 37 °C with NADPH regeneration system. The protocol: Each compound (final 1 μM, duplicated) was added to each 0.1 M PBS solution (pH 7.4) containing liver microsome of three different species (human, dog, mouse). After a brief (5 m) incubation at 37 °C, the NADPH regeneration system (Promega Corp., Madison, WI, USA) was added, then the mixture was incubated at 37 °C for 30 m. The reaction was terminated by adding acetonitrile containing an internal standard (chlorpropamide), then the mixture was centrifuged at 15,000 rpm, 4 °C for 5 m. The supernatant solution was injected to LC/MS/MS system (TSQ Vantage Triple-Stage Quadrupole Mass Spectrometer, ThermoFisher Scientific, Waltham, MA, USA). The remaining substrates were analyzed with Xcalibur 4.4 s/w using an MRM (multiple reaction monitoring) quantitation mode.

A further data set deals with CYP3A4 (Homo sapiens, UniProt P08684). In words: CYP inhibition. Type of data set: in vitro ADME. The protocol:
Table 6 In vitro liver metabolic stability and activity against CYPs of potent analogues. | column: CYP % Activity at 10 μM / 3A4

By share remaining is commonly meant what is left of the initial amount, in per cent. A high value points to greater stability.

Chain of CYP2D6 (P10635 whole entry): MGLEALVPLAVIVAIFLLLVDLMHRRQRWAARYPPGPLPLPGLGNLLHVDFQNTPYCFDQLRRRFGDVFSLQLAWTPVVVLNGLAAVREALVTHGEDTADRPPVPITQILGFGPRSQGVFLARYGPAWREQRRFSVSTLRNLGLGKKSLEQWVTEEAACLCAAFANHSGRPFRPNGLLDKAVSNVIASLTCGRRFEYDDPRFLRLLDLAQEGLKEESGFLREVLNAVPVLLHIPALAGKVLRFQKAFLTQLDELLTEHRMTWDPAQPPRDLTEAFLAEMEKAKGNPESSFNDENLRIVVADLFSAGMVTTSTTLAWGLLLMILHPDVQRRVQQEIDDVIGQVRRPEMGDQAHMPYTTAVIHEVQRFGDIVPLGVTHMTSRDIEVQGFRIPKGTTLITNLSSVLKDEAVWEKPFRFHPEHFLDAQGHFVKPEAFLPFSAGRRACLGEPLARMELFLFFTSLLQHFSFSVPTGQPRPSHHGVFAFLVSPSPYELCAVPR
Chain of CYP2C19 (P33261 whole entry): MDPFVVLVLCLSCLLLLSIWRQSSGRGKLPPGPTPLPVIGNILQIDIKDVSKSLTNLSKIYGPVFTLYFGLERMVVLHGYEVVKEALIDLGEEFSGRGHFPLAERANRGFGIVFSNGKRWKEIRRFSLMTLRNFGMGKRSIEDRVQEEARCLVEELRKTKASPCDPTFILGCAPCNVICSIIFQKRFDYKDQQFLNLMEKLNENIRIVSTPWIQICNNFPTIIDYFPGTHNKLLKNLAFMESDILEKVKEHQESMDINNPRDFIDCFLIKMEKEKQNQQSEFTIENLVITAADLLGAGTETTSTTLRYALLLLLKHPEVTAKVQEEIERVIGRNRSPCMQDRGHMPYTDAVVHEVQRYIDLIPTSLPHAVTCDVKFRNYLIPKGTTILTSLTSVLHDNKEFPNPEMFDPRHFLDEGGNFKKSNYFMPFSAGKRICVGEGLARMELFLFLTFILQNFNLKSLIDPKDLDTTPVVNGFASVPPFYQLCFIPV
Chain of CYP2C9 (P11712 whole entry): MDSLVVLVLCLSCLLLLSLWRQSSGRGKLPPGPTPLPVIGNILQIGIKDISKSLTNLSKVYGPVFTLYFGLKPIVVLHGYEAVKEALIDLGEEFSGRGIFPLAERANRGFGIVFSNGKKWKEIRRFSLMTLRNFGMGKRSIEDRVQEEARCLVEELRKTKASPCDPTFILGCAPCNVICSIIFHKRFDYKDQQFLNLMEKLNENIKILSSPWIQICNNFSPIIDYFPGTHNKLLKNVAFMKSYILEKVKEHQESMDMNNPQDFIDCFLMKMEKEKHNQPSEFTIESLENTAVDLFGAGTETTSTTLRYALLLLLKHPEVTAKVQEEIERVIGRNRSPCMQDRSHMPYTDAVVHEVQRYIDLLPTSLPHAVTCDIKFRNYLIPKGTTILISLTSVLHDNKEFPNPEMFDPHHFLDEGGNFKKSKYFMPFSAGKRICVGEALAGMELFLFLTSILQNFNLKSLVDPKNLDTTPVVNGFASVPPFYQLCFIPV
Chain of CYP3A4 (P08684 whole entry): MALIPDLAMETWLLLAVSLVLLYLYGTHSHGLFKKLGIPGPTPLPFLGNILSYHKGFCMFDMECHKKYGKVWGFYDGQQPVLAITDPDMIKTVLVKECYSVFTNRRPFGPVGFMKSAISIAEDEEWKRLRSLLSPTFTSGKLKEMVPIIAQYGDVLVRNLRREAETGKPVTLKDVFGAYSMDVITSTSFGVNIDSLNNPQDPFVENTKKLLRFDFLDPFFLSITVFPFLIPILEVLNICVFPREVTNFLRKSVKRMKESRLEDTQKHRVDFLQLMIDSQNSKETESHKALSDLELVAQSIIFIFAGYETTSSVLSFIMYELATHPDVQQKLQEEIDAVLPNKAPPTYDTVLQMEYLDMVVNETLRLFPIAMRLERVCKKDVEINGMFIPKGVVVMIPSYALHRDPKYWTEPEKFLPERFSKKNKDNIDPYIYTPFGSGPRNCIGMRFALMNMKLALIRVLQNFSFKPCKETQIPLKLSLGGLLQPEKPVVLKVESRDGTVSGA

For the molecule `CCn1cnc2c(NCc3ccc(-c4ccnc(C)c4)nc3)nc(-c3ccc(N)nc3)nc21` [Compound 30a, 2-(6-Aminopyridin-3-yl)-9-ethyl-N-((2′-methyl-[2,4′-bipyridin]-5-yl)methyl)-9H-purin-6-amine], the “CYP % Activity at 10 μM 2C9” value on CYP2C9 came out at 73.0%. Besides, the IC50 at CDK12/CyclinK (Table 5, means and standard deviations from three independent assays, read-out: CDK12/CyclinK (IC50/μM)) was 0.029 ± 0.015 µM; on CDK12/CyclinK (read-out: CDK12/cyclinK IC50), less than 0.03 µM. In addition, the “CYP % Activity at 10 μM 2C19” value at CYP2C19 worked out at 76.8%. Also, the GI50 was 0.104 ± 0.003 µM with HCC1954 cells and 0.136 ± 0.016 µM in the data set with SK-Br3 cells. In addition, at CYP2D6, the “CYP % Activity at 10 μM 2D6” value is listed as 89.6%. In addition, the “CYP % Activity at 10 μM 1A2” value on CYP1A2 is 59.3%. In addition, the share remaining at 30 min, 1 μM was determined as 45.1% in data set [1] (dog), 32.2% in [1] (human) and 35.3% in data set [1] (mouse). The “CYP % Activity at 10 μM 3A4” value at CYP3A4 came out at 38.9%.
